Data as given in article PMC7835237, “Dual mechanism β-amino acid polymers promoting cell adhesion” (Nature Communications, 2021).

How the values were obtained:
[1] = tested on: MC3T3-E1 preosteoblast cells; assay: Cell spreading area on modified surfaces (immunofluorescence analysis of cell morphology); format: cell-based, mouse
Method: The degree of cell spreading on a functionalized glass slide was measured by immunofluorescence analysis. After culture medium was removed, the slide was washed with PBS and then cells on the slide were fixed with 4% paraformaldehyde for 20 min. The slide was washed with PBS thrice and incubated for 5 min with 0.4% triton-X in PBS. Subsequently, the slide was washed with PBS thrice, followed by blocking with 3% bovine serum albumin (BSA) in PBS for 1 h at rt and then incubated with Alexa Fluor-555-conjugated anti-vinculin antibody (1:300 in PBS) overnight at 4 °C. The slide was washed with PBS thrice and incubated for 2 h with FITC-phalloidin (1:200 in PBS) and 4′-6-diamidino-2-phenylindole (DAPI) (5 μg/mL) for 10 min. The slide was washed with PBS thrice and its fluorescent images were collected on a confocal microscope (Nikon A1R, Japan).

[2] = tested on: MC3T3-E1 preosteoblast cells; assay: Cell adhesion in a serum-free environment with enzyme-pretreated cells; format: cell-based, mouse; parameters: unit not given here; conditions: serum-free medium, 1 day
Method: Cells were detached and washed thrice with a serum-free medium. In order to examine the impact of cell membrane-tethered proteins on cell adhesion in a serum-free environment, cells were suspended and incubated at 37 °C for 20 min in 3 mL serum-free α-MEM medium that contains 0.307 U/mL plasmin, 10 U/mL collagenase (types I and II), 2 U/mL heparinase (types I, II, and III), or 10 U/mL hyaluronidase, respectively. The protease-treated cells were washed and suspended in a serum-free α-MEM to a final concentration of 1.5 × 10^5 cells/mL. An aliquot of 10 μL this cell suspension was added to each individual well (formed by a 50-well silicon coverslip on the top of a glass slide) that has bottom surface modified with DM50CO50, RGD, or KRSR, respectively, and then the slide was placed in a petri dish for incubation at 37 °C for 2 h for cell attachment. Then additional fresh medium was added into the petri dish to immerse the entire slide and the whole dish was incubated for 1 day. After removing the medium, cells were stained with a live/dead staining solution and the fluorescent images were captured under a microscope (Nikon Eclipse Ti-S, Japan) at different locations of each well. The collected images were analyzed using Image-pro plus software.

[3] = Control: untreated cells, value 1 of n = 9
[4] = Control: untreated cells, value 2 of n = 9
[5] = Control: untreated cells, value 3 of n = 9
[6] = Control: untreated cells, value 4 of n = 9
[7] = Control: untreated cells, value 5 of n = 9
[8] = Control: untreated cells, value 6 of n = 9
[9] = Control: untreated cells, value 7 of n = 9
[10] = Control: untreated cells, value 8 of n = 9
[11] = Control: untreated cells, value 9 of n = 9
[12] = cells pretreated with Collagenase 10 U/mL, value 1 of n = 9
[13] = cells pretreated with Collagenase 10 U/mL, value 2 of n = 9
[14] = cells pretreated with Collagenase 10 U/mL, value 3 of n = 9
[15] = cells pretreated with Collagenase 10 U/mL, value 4 of n = 9
[16] = cells pretreated with Collagenase 10 U/mL, value 5 of n = 9
[17] = cells pretreated with Collagenase 10 U/mL, value 6 of n = 9
[18] = cells pretreated with Collagenase 10 U/mL, value 7 of n = 9
[19] = cells pretreated with Collagenase 10 U/mL, value 8 of n = 9
[20] = cells pretreated with Collagenase 10 U/mL, value 9 of n = 9
[21] = cells pretreated with Heparinase 2 U/mL, value 1 of n = 9
[22] = cells pretreated with Heparinase 2 U/mL, value 2 of n = 9
[23] = cells pretreated with Heparinase 2 U/mL, value 3 of n = 9
[24] = cells pretreated with Heparinase 2 U/mL, value 4 of n = 9
[25] = cells pretreated with Heparinase 2 U/mL, value 5 of n = 9
[26] = cells pretreated with Heparinase 2 U/mL, value 6 of n = 9
[27] = cells pretreated with Heparinase 2 U/mL, value 7 of n = 9
[28] = cells pretreated with Heparinase 2 U/mL, value 8 of n = 9
[29] = cells pretreated with Heparinase 2 U/mL, value 9 of n = 9
[30] = cells pretreated with Hyaluronidase 10 U/mL, value 1 of n = 9
[31] = cells pretreated with Hyaluronidase 10 U/mL, value 2 of n = 9
[32] = cells pretreated with Hyaluronidase 10 U/mL, value 3 of n = 9
[33] = cells pretreated with Hyaluronidase 10 U/mL, value 4 of n = 9
[34] = cells pretreated with Hyaluronidase 10 U/mL, value 5 of n = 9
[35] = cells pretreated with Hyaluronidase 10 U/mL, value 6 of n = 9
[36] = cells pretreated with Hyaluronidase 10 U/mL, value 7 of n = 9
[37] = cells pretreated with Hyaluronidase 10 U/mL, value 8 of n = 9
[38] = cells pretreated with Hyaluronidase 10 U/mL, value 9 of n = 9
[39] = cells pretreated with Plasmin 0.307 U/mL, value 1 of n = 9
[40] = cells pretreated with Plasmin 0.307 U/mL, value 2 of n = 9
[41] = cells pretreated with Plasmin 0.307 U/mL, value 3 of n = 9
[42] = cells pretreated with Plasmin 0.307 U/mL, value 4 of n = 9
[43] = cells pretreated with Plasmin 0.307 U/mL, value 5 of n = 9
[44] = cells pretreated with Plasmin 0.307 U/mL, value 6 of n = 9
[45] = cells pretreated with Plasmin 0.307 U/mL, value 7 of n = 9
[46] = cells pretreated with Plasmin 0.307 U/mL, value 8 of n = 9
[47] = cells pretreated with Plasmin 0.307 U/mL, value 9 of n = 9

KRSRGYC
Cell area of preosteoblast cells ([1]; cultured on modified surface for 3 h, replicate 1): 2526 | Cell area of preosteoblast cells ([1]; cultured on modified surface for 3 h, replicate 2): 2456 | Cell area of preosteoblast cells ([1]; cultured on modified surface for 3 h, replicate 3): 2659 | Cell area of preosteoblast cells ([1]; cultured on modified surface for 24 h, replicate 1): 4026 | Cell area of preosteoblast cells ([1]; cultured on modified surface for 24 h, replicate 2): 4102 | Cell area of preosteoblast cells ([1]; cultured on modified surface for 24 h, replicate 3): 4230 | Cell density (figure 6c) [2, 3]: 96 | Cell spreading area (figure 6b) [2, 3]: 2152 | Cell density (figure 6c) [2, 4]: 95 | Cell spreading area (figure 6b) [2, 4]: 2263 | Cell density (figure 6c) [2, 5]: 98 | Cell spreading area (figure 6b) [2, 5]: 2236 | Cell density (figure 6c) [2, 6]: 96 | Cell spreading area (figure 6b) [2, 6]: 2265 | Cell density (figure 6c) [2, 7]: 96 | Cell spreading area (figure 6b) [2, 7]: 2150 | Cell density (figure 6c) [2, 8]: 90 | Cell spreading area (figure 6b) [2, 8]: 2154 | Cell density (figure 6c) [2, 9]: 96 | Cell spreading area (figure 6b) [2, 9]: 2365 | Cell density (figure 6c) [2, 10]: 89 | Cell spreading area (figure 6b) [2, 10]: 2263 | Cell density (figure 6c) [2, 11]: 98 | Cell spreading area (figure 6b) [2, 11]: 2153 | Cell density (figure 6c) [2, 12]: 92 | Cell spreading area (figure 6b) [2, 12]: 2270.3 | Cell density (figure 6c) [2, 13]: 92 | Cell spreading area (figure 6b) [2, 13]: 2036 | Cell density (figure 6c) [2, 14]: 89 | Cell spreading area (figure 6b) [2, 14]: 2011.4 | Cell density (figure 6c) [2, 15]: 88 | Cell spreading area (figure 6b) [2, 15]: 2163 | Cell density (figure 6c) [2, 16]: 95 | Cell spreading area (figure 6b) [2, 16]: 2200 | Cell density (figure 6c) [2, 17]: 89 | Cell spreading area (figure 6b) [2, 17]: 2110.4 | Cell density (figure 6c) [2, 18]: 98 | Cell spreading area (figure 6b) [2, 18]: 2163 | Cell density (figure 6c) [2, 19]: 90 | Cell spreading area (figure 6b) [2, 19]: 2145 | Cell density (figure 6c) [2, 20]: 90 | Cell spreading area (figure 6b) [2, 20]: 2068 | Cell density (figure 6c) [2, 21]: 83 | Cell spreading area (figure 6b) [2, 21]: 1652 | Cell density (figure 6c) [2, 22]: 81 | Cell spreading area (figure 6b) [2, 22]: 1526.5 | Cell density (figure 6c) [2, 23]: 76 | Cell spreading area (figure 6b) [2, 23]: 1753 | Cell density (figure 6c) [2, 24]: 75 | Cell spreading area (figure 6b) [2, 24]: 1586.3 | Cell density (figure 6c) [2, 25]: 82 | Cell spreading area (figure 6b) [2, 25]: 1632 | Cell density (figure 6c) [2, 26]: 72 | Cell spreading area (figure 6b) [2, 26]: 1552.3 | Cell density (figure 6c) [2, 27]: 85 | Cell spreading area (figure 6b) [2, 27]: 1596.3 | Cell density (figure 6c) [2, 28]: 68 | Cell spreading area (figure 6b) [2, 28]: 1550 | Cell density (figure 6c) [2, 29]: 83 | Cell spreading area (figure 6b) [2, 29]: 1620 | Cell density (figure 6c) [2, 30]: 94 | Cell spreading area (figure 6b) [2, 30]: 2270.3 | Cell density (figure 6c) [2, 31]: 93 | Cell spreading area (figure 6b) [2, 31]: 1990.3 | Cell density (figure 6c) [2, 32]: 84 | Cell spreading area (figure 6b) [2, 32]: 2011.4 | Cell density (figure 6c) [2, 33]: 93 | Cell spreading area (figure 6b) [2, 33]: 1892.3 | Cell density (figure 6c) [2, 34]: 89 | Cell spreading area (figure 6b) [2, 34]: 2309.4 | Cell density (figure 6c) [2, 35]: 95 | Cell spreading area (figure 6b) [2, 35]: 2110.4 | Cell density (figure 6c) [2, 36]: 90 | Cell spreading area (figure 6b) [2, 36]: 2409.4 | Cell density (figure 6c) [2, 37]: 89 | Cell spreading area (figure 6b) [2, 37]: 1909 | Cell density (figure 6c) [2, 38]: 90 | Cell spreading area (figure 6b) [2, 38]: 1893 | Cell density (figure 6c) [2, 39]: 89 | Cell spreading area (figure 6b) [2, 39]: 2136 | Cell density (figure 6c) [2, 40]: 90 | Cell spreading area (figure 6b) [2, 40]: 2153.4 | Cell density (figure 6c) [2, 41]: 91 | Cell spreading area (figure 6b) [2, 41]: 2145 | Cell density (figure 6c) [2, 42]: 94 | Cell spreading area (figure 6b) [2, 42]: 2033 | Cell density (figure 6c) [2, 43]: 93 | Cell spreading area (figure 6b) [2, 43]: 2312.4 | Cell density (figure 6c) [2, 44]: 78 | Cell spreading area (figure 6b) [2, 44]: 2019.3 | Cell density (figure 6c) [2, 45]: 90 | Cell spreading area (figure 6b) [2, 45]: 2036 | Cell density (figure 6c) [2, 46]: 94 | Cell spreading area (figure 6b) [2, 46]: 2435.5 | Cell density (figure 6c) [2, 47]: 91 | Cell spreading area (figure 6b) [2, 47]: 2135
